Our source for the melting point values is a melting point compilation (Tetko et al.; mined from patent text by program, amines drawn as free bases though some values may be those of a salt).

The structures appear in SMILES notation.

As a reminder, the melting point is the temperature, or range, at which the solid turns liquid. As to `CC(=NNc1ccc(C2=NNC(=O)CO2)cc1)c1ccncc1`, the melting point was 195 °C.
Take `CCOCc1nc2c(N)nc3cc(OCc4ccc(F)cc4)ccc3c2n1CC(C)(C)NS(C)(=O)=O`: the melting point is 251 to 253 °C.
The result for `Cc1cc2c(-c3ccccc3Cl)c(NC(=O)Nc3cccc([N+](=O)[O-])c3)c(=O)n(C)c2cc1C` reads 190 to 192 °C; that for `CCS(=O)(=O)c1ccc(-c2coc3ccc(-c4nnc(C)o4)nc23)cc1`, 246 to 247 °C; that for `O=S(=O)(c1ccccc1)C1CCC(COc2ccc(F)cc2)O1` (racemic), 102 to 104 °C.
The result for `COc1cc(Nc2nccc(-c3ccc(NCCCN)nc3)n2)cc(OC)c1OC` reads 152 to 153 °C; that for `Cc1c2n(c3ccc(Br)cc13)CCC(Br)C2=O` (stereo not drawn), 156 °C; that for `OCCOc1cc2ccccc2cc1OCCOc1ccccc1`, 119 to 120 °C.
The figure for `CC(C)(C)OC(=O)c1ncn2c1c(C(=O)N1CCCC1)cc1ccccc12` is 216 to 218 °C; for `O=C(O)C(CCc1ccccc1)CC1(C(=O)Nc2cccnc2)CCCC1` (stereo not drawn) it is 80 to 85 °C; for `CCCC1COC(c2cc(F)c(C(F)(F)Oc3ccc(-c4cc(F)c(OC(F)(F)F)c(F)c4)c(F)c3)c(F)c2)OC1` (stereo not drawn) it is 61 °C.
`COCCCNc1ncnc2c1sc1nc(N3CCOCC3)c3c(c12)CC(C)(C)OC3` yielded a melting point of 178 to 179 °C.
The result for `COc1ccc(-c2nc(Sc3ccc(C(C)(C)C)cc3)n(C3CCCCO3)c2-c2ccc(OC)cc2)cc1` (stereo not drawn) reads 162 to 164 °C.
As for `Nc1cccc2c1nnn2C1CCCCC1`, the melting point lay in the range of 54 to 60 °C.
Molecule `CC(C)c1cccc(C(C)C)c1NS(=O)(=O)NC(=O)N(Cc1ccccc1)Cc1ccccc1` displayed a melting point of 140 to 142 °C.
Consider `C=c1c(=O)[nH]c2n1Cc1cc(OCCCC(=O)N(C)C3CCCCC3)ccc1N=2`, for which the melting point fell in the range of 176 to 178 °C.
The figure for `COc1ccc(CSc2nnc(-c3ccc4ncsc4c3)o2)cc1C#N` is 181 to 182 °C; for `COc1cc2c(cc1C(F)(F)F)N(C(=O)Nc1ccc(Sc3cccnc3)nc1)CC2` it is 208 to 210 °C.
On to `CC(C)(C)OC(=O)N1CCn2c(c(C(N)=O)c(C#N)c2C2CC2)C1`, for which the melting point was in the range of 221 to 222 °C.
`COc1ccc(C2(C)CCC(=O)O2)cc1OC` (stereo not drawn) came in with a melting point of 71.2 °C.
`COc1ccc2c(c1)c(CC(=O)N(O)C(C)C)c(C)n2C(=O)c1ccc(Cl)cc1` registered a melting point of 198 to 199 °C.
The result for `c1cc2c3c(c1)[C@@H]1CCC[C@@H]1N3CCNC2` reads 57 to 59 °C; that for `Cc1nc(-n2ccc(C(=O)Nc3ccccc3)cc2=O)sc1C(=O)NCc1ccccc1`, 243 to 245 °C; that for `O=c1[nH]c2cc([N+](=O)[O-])c(Sc3cccc4cnccc34)cc2o1`, 255 to 260 °C.
The result for `CCC(=O)Nc1nc(N[C@H]2c3cc(C)ccc3C[C@@H]2C)nc(C(F)F)n1` reads 66 °C; that for `CCCCc1nn(-c2cc(N)ccc2Cl)c(=O)n1Cc1ccc(-c2ccccc2S(=O)(=O)NC(=O)OC(C)(C)C)cc1`, 185 to 188 °C; that for `CCOc1nn(C(=O)N(CCCF)S(=O)(=O)N=c2[nH]ccs2)c(=O)n1C`, 178 °C.
The result for `CC(C)(C)S(=O)(=O)CCOCCn1ccc2ncnc(Nc3ccc(Oc4cccc(C(F)(F)F)c4)c(Cl)c3)c21` reads 79.5 to 81.5 °C; that for `O=C(O)C1=Cc2cc(Cl)c(Cl)cc2SC1C(F)(F)F` (stereo not drawn), 262 to 264 °C.
Take `CCn1c(=O)c2[nH]c(/C=C/c3cccc(OC)c3[N+](=O)[O-])nc2n(CC)c1=O`: the melting point was greater than 285 °C.
The result for `C=COCCONC(=O)c1cc(Br)c(F)c(F)c1Nc1ccc(I)cc1F` reads 128 to 130 °C; that for `CCN(C(=O)OC)c1cn2cc(Sc3ccccc3)ccc2n1`, 130 to 131 °C; that for `Cc1ccc(-n2ncc(-c3ccc(S(C)(=O)=O)cc3)c(-c3ccc(F)cc3)c2=O)cc1`, 190 to 192 °C.
The result for `COC1(c2cc(F)cc(Sc3ccc(C(=NO)C(F)(F)F)cc3)c2)CCOCC1` reads 131 to 133 °C.
In turn, `Cc1ccc(C[C@H](NC(=O)[C@@H](NC(=O)OCc2ccccn2)C(C)C)[C@H](O)[C@H](Cc2ccccc2)NC(=O)[C@@H](NC(=O)OCc2ccccn2)C(C)C)cc1` returned a melting point of 195 to 198 °C.
The figure for `N#CC=C1CCN(c2ccc(N3C[C@H](CNC(=O)CI)OC3=O)cc2F)CC1` is 178 to 180 °C; for `COc1cc(C#N)ccc1Cc1c[nH]c2ccc([N+](=O)[O-])cc12` it is 204 to 206 °C; for `O=S(=O)(c1ccc(Br)cc1)n1ccc2ccccc21` it is 106 °C.
On to `Fc1ccc(-c2c[nH]c(C3CCN(CC4CCCCC4)CC3)n2)cc1`, for which the melting point lay in the range of 220 to 222 °C.
Molecule `Nc1ccc(C#Cc2ccc(N3CCN4CCC3CC4)nn2)cc1` returned a melting point of 182 to 183 °C.
The result for `O=C1NCC(C(F)(F)C(F)(F)C(F)(F)F)C(=O)N1` (stereo not drawn) reads 223 °C; that for `CC1CC(CN2CCNC2=N[N+](=O)[O-])CO1` (stereo not drawn), 109 to 110 °C.
The result for `COc1ccc(CN/C=C2\C(=O)NC(=O)c3cccc(Br)c32)cc1O` reads 204 to 206 °C; that for `CCOC(=O)c1ccc(CCN(C)CCCC(C#N)(C(=O)OCC)c2ccc(OC)c(OC)c2)cc1` (stereo not drawn), 83 to 84 °C.
The figure for `COc1ccc2c(c1)C(N)(CCC#N)C(=O)N2c1ccc(F)cc1` (stereo not drawn) is 136 to 138 °C.
For the molecule `N#CCc1cccc(Cc2ccccc2)c1`, the melting point is 136 to 137 °C.
The result for `CCN(CC)CCCNC(=O)Cn1ncc(-c2ccc(NS(C)(=O)=O)cc2)c1-c1ccccc1` reads 179 to 180 °C; that for `CNC(=O)[C@@H]1C[C@@H](OCC2CC2)CN1S(=O)(=O)c1ccc(Cl)c(CBr)c1Cl`, 161 °C.
`CC1(C)OCC(CONC(=O)c2ccc(F)c(F)c2Nc2ccc(I)cc2F)O1` (stereo not drawn) gave a melting point of 114 to 115 °C.
The figure for `Clc1ccc(Sc2ccc(-c3ccccc3)s2)cc1` is 85 to 87 °C; for `Cc1ccccc1NC(=O)CN1CC2CCC(C1)N2S(=O)(=O)c1ccccc1` it is 169 to 170 °C.
The result for `N#Cc1ccc(-c2ccc(N3CC(CI)CC3=O)cc2)cc1` (stereo not drawn) reads 178 to 179 °C.
In turn, `C#CCCCCOc1cc(C=O)ccc1OC` returned a melting point of 66 to 67 °C.
`Cc1cc(-n2cc(-c3ccc(F)cc3)nc2C)cc2ccc(=O)[nH]c12` displayed a melting point of 289 to 291 °C.
Take `NC(=O)CNC(=O)c1cccc(-c2ccc3c(c2)C(Oc2ccc(Cl)cc2Cl)CC3)c1` (stereo not drawn): the melting point was 180 to 181 °C.
The figure for `O=c1oc(-c2ccc(OCc3ccccc3)cc2)cc(O)c1SCCc1ccccc1` is 139 to 142 °C; for `CC(=O)c1ccc(-c2ccc(C#N)o2)cc1` it is 122 to 125 °C.
The figure for `O=C(NCC1CCOCC1)NC12CC3CC(CC(C3)C1)C2` is 196 to 198 °C; for `COc1ccc(-c2nc(N3CCCC3)c3c(C)c(C#N)sc3n2)cc1` it is 176 to 178 °C; for `COc1ccc(C[C@@H](NC(=O)C2CCCCC2)[C@@H](O)c2ccc(F)cc2)cc1` (racemic) it is 193 to 194 °C.
As to `CNC(C)Cn1nc(Cl)c2cc3ccc(OC)cc3nc21` (stereo not drawn), the melting point was in the range of 98 to 100 °C.
The figure for `O=[N+]([O-])c1cc(-n2cccc2)ccc1F` is 79 to 81 °C; for `Cn1cccc1S(=O)(=O)NC(C)(C)C` it is 125 to 126 °C.
As to `COc1cc2c(cc1OC(C)C)C(=O)C1c3c(cc(OC(C)C)c(OC)c3-2)CCN1C` (stereo not drawn), the melting point fell in the range of 82 to 84 °C.
In the case of `CS(=O)c1ccc(-c2cc(C(F)F)nn2-c2ccc3c(c2)OCO3)cc1` (stereo not drawn), the melting point lay in the range of 104 to 105 °C.
The result for `CCOC(=O)CC(=O)c1ccc(NC(C)=O)cc1` reads 93 to 94 °C.
The result for `CC(=C(C#N)C(=O)c1ccccc1)N(C)C` reads 105 to 106 °C; that for `CCOc1ccc(C(=O)COC(C)=O)cc1`, 81 to 82 °C.
The figure for `O=C1C(Br)=CN=CC1Br` (stereo not drawn) is 320 °C.
Regarding `CC(=O)Nc1ccc(S(=O)(=O)NCC2CCN(C[C@H]3COc4ccc(Cl)cc4O3)CC2)cc1`, the melting point was in the range of 173 to 176 °C.
The result for `CCc1oc2ccccc2c1C(=O)c1ccc(OCC(=O)OC)cc1` reads 72 to 74 °C.
In the case of `COC(=O)c1nn(-c2ccc(I)cc2F)cc(OC)c1=O`, the melting point fell in the range of 160 to 162 °C.
The figure for `CCc1cn2c(N)c(Cl)cc(C(=O)NCC3CCN(CC(C)(C)OC)CC3)c2n1` is 211 °C.
`CCOC(=O)c1nc2ncnc(NCc3ccccc3)c2[nH]1` registered a melting point of 181 to 185 °C.
As to `Nc1cc([N+](=O)[O-])c(Cl)cc1F`, the melting point was in the range of 82 to 83.5 °C.
Turning to `NCCNc1nc(N)nc(-c2cc(Cl)ccc2Cl)n1`, the melting point lay within 152 to 153 °C.
The result for `Clc1cnc(Br)c(Cl)c1` reads 37 to 38 °C.
In turn, `Nc1c(F)c(N2CCC(n3cncn3)C2)c(F)c2c1c(=O)c(C(=O)O)cn2C1CC1` (stereo not drawn) had a melting point of 240 °C.
The result for `CCOC(=O)c1c(C)cc(OC)cc1C(=O)O` reads 142 to 143 °C.
As to `COC(=O)c1c(OCc2ccccc2)ccc2c1CC[C@H](NC(C)C)[C@@H]2O` (relative stereo), the melting point was 91 to 92 °C.
The figure for `Oc1ncnc2[nH]c(-c3ccc4ccccc4c3)cc12` is greater than 300 °C.
Molecule `CN(C)C(=O)COc1ccc2c(c1)C[C@@H](NC[C@@H](O)c1ccc(OCc3ccccc3)cc1)CC2` displayed a melting point of 103 to 106 °C.
The result for `C=C(c1cc(F)ccc1O)n1ccnc1` reads 164 to 166 °C.
The result for `COC(=O)c1c(OC)cc(C(F)(F)F)nc1C(F)(F)F` reads 101 to 103 °C.
The result for `O=[N+]([O-])c1cccc2ccc3nc(O)c(O)nc3c12` reads greater than 300 °C; that for `CS(=O)(=O)c1ccc(-c2cc(CBr)nn2CC2CCCCC2)cc1`, 141 to 143 °C.
Molecule `CCn1nc(Br)c([N+](=O)[O-])c1CCN` returned a melting point of 84.9 to 87.4 °C.
The result for `CCN(CC)CCOc1ccc(Nc2ncc3c(n2)NC(=O)N(c2c(Cl)cccc2Cl)C3)cc1` reads 248 °C.
